“Also recorded” adds a separate entry of the source. Each block holds one compound with its values, some of them ahead of it.
Experiments:
rats = experiment: Body temperature in rats after TRPV1 antagonist followed by acetaminophen; type: in vivo
Description: In this study rats were first treated with vehicle (Oraplus/5% Tween 80) or a TRPV1 antagonist (Compound A; 3 mg/kg, p.o.). Following a 120 min period, separate groups of rats were then administered vehicle (Oraplus/5% Tween 80) or acetaminophen (300 mg/kg, p.o.). Body temperature was then measured for an additional 120 min.

TRPV1 [1] = settings: different species; cited from earlier work
TRPV1 [2] = settings: cited from earlier work

body temperature following treatment with TRPV1 antagonist (rats; 3 mg/kg, p.o., 120 min period after dosing): significant increase in body temperature | body temperature compared to the control group (Veh+Veh) (rats; Compound A 3 mg/kg p.o. followed after 120 min by vehicle (Compound A+Veh group), measured for an additional 120 min): remained elevated
SMILES: CC(=O)Nc1nc2c(Oc3cc(-c4ccc(C(F)(F)F)cc4NC(=O)OC(C)(C)C)ncn3)cccc2s1 [Compound A, {2-[6-(2-acetylamino-benzothiazol-4-yloxy)-pyrimidin-4-yl]-5-trifluoromethyl-phenyl}-carbamic acid tert-butyl ester]

SMILES: C=C(C)[C@]12C[C@@H](C)[C@@]34O[C@](Cc5ccccc5)(O[C@@H]1[C@@H]3C=C(COC(=O)Cc1ccc(O)c(OC)c1)C[C@]1(O)C(=O)C(C)=C[C@@H]41)O2 [RTX, resiniferatoxin]
hypothermia induced by TRPV1 agonists (TRPV1 [1]): induce hypothermia

SMILES: CC(=O)Nc1ccc(O)cc1 [acetaminophen]
body temperature after TRPV1 antagonist followed by acetaminophen (rats; Compound A 3 mg/kg p.o., then after 120 min acetaminophen 300 mg/kg p.o. (Compound A+Acet group), measured for an additional 120 min): reversed; also recorded: decreased to levels observed in the control group | body temperature, acetaminophen alone (rats; vehicle, then after 120 min acetaminophen 300 mg/kg p.o. (Veh+Acet group)): decreased

SMILES: COc1cc(CNC(=O)CCCC/C=C/C(C)C)ccc1O [capsaicin]
hypothermia in mice lacking TRPV1 (TRPV1 [2]): did not induce hypothermia | hypothermia induced by TRPV1 agonists (TRPV1 [1]): induce hypothermia

Source: patent US20090312433A1, “TREATMENT OF VR1-ANTAGONIST-INDUCED INCREASE IN BODY TEMPERATURE WITH AN ANTIPYRETIC AGENT” (Amgen Inc., priority 2005, published 2009)
